{"source": "patent US12459891B2", "about": "“1-[1-(4-benzyloxy-3,5-difluoro-benzoyl)-4-fluoro-pyrrolidine-2-carbonyl]-pyrrolidine-2-carbonitrile” (ACCURE THERAPEUTICS, S.L., priority 2020, dated 2025)", "key": {"MK-801-treated mice": {"tested_on": "MK-801-treated mice", "test": "Novel object recognition (NOR) task, MK-801-induced cognitive deficit", "format": "in vivo, male C57/Bl6 mice", "conditions": "mean ± s.e.m."}, "POP": {"tested_on": "POP", "conditions": "non-competitive POP inhibitor; read-out: IC50 (POP inhibition); cited from earlier work"}}, "data": [{"smiles": "C[C@]12N[C@H](Cc3ccccc31)c1ccccc12", "note": "[MK 801, Dizocilpine]", "values": [{"measurement": "% discrimination index", "setting": "MK-801-treated mice; MK 801 0.2 mg/kg sc alone (vehicle ip), intraperitoneal experiment", "result": "21 ± 4.7", "unit": "%"}, {"measurement": "% discrimination index", "setting": "MK-801-treated mice; MK 801 0.2 mg/kg sc alone (vehicle po), oral experiment", "result": "16.6 ± 5.9", "unit": "%"}]}, {"smiles": "O=C(/C=C/c1ccc(O)c(O)c1)O[C@H](Cc1ccc(O)c(O)c1)C(=O)O", "note": "[rosmarinic acid]", "values": [{"measurement": "IC50", "setting": "POP", "result": 63.7, "unit": "µM"}]}]}
